Reference: US6987184B2, “Isothiazoloanthrones, isoxazoloanthrones, isoindolanthrones and derivatives thereof as JNK inhibitors and compositions and methods related” (Signal Pharmaceuticals, LLC, priority 2001, dated 2006)

Tests used:
[1] = system: rat ventral mesencephalan neurons; experiment: [3H]Dopamine cell culture assay (6-OHDA neurotoxicity); assay type: cell-based; details: approximately 3×10^−6 M compound; 6-OHDA 30 μM; uptake 22 hrs after exposure; FIG. 1
Method: Cultures of dopaminergic neurons were prepared according to a modification of the procedure described by Raymon and Leslie (J. Neurochem. 62, 1015-1024, 1994). Time-mated pregnant rats were sacrificed on embyronic day 14-15 (crown rump length 11-12 mm) and the embryos removed by cesarean section. The ventral mesencephalon, containing the dopaminergic neurons, was dissected from each embryo. Tissue pieces from approximately 48 embryos were pooled and dissociated both enzymatically and mechanically. An aliquot from the resulting cell suspension was counted and the cells were plated in high glucose DMEM/F12 culture medium with 10% fetal bovine serum at a density of 1×10^5 cells/well of a Biocoat poly-D-lysine-coated 96-well plate. The day following plating was considered 1 day in vitro (DIV). Cells were maintained in a stable environment at 37° C., 95% humidity, and 5% CO2. A partial medium change was performed at 3 DIV. […]
[^3H]Dopamine uptake is used as a measure of the health and integrity of dopaminergic neurons in culture (Prochiantz et al., PNAS 76: 5387-5391, 1979). […] Briefly, cells treated with 6-OHDA in the presence and absence of Compound CC were assessed in the uptake assay 22 hrs after exposure to 6-OHDA. […] Radioactivity was removed and the cultures were washed 3× with ice cold PBS. […]

[2] = Brain-blood plasma distribution in vivo; parameters: species or system Sprague-Dawley rats; details: rat, 10 mg/kg intravenously, 2 hr post-dose
Method: Compound CC was administered intravenously (10 mg/kg) into the veins of Sprague-Dawley rats. After 2 hr, blood samples were obtained from the animals and their vascular systems were perfused with approximately 100 mL of saline to rid their brains of blood. The brains were removed from the animals, weighed, and homogenized in a 50 mL conical tube containing 10 equivalents (w/v) of methanol/saline (1:1) using a Tissue Tearer (Fischer Scientific). The homogenized material was extracted by adding 600 μL of cold methanol to 250 μL of brain homogenate vortexed for 30 sec and subjected to centrifugation for 5 min. After centrifugation, 600 μL of the resulting supernatant was transferred to a clean tube and evaporated at room temperature under reduced pressure to provide a pellet. […] The brain homogenate analysis samples, plasma analysis samples, and standard analysis samples were analyzed and compared using HPLC by injecting 100 μL of a sample onto a 5 μm C-18 Luna column (4.6 mm×150 mm, commercially available from Phenomenex of Torrance, Calif.) and eluting at 1 mL/min with a linear gradient of 30% aqueous acetonitrile containing 0.1% trifluoroacetic acid to 90% aqueous acetonitrile containing 0.1% trifluoroacetic acid over 8 minutes and holding at 90% aqueous acetonitrile containing 0.1% trifluoroacetic acid for 3 min. with absorbance detection at 450 nm. […]

[3] = Solubility in aqueous media; assay type: physicochemical

For Nc1ccc2snc3c2c1C(=O)c1ccccc1-3 [Compound CC], the “protection of neurons from 6-OHDA, by [3H]dopamine uptake” value [1] was “protects rat ventral mesencephalan neurons from the toxic effects of 6-OHDA”, the brain-drug concentration [2] was “approximately 65 nmole/g” and the “solubility in aqueous media” value [3] was “limited solubility”.
